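Assay format: 96-well plates, 48-hour exposure. Abbreviation: GI50, concentration required for 50% inhibition of growth. TGI: total growth inhibition.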
Columns and labels:
Assay in all cases: inhibition of tumour cell growth, NCI panel, 48 h
SF-539 CNS = tested on: SF-539 CNS
NCI/ADR-RES ovarian = tested on: NCI/ADR-RES ovarian
HCT-116 colon = tested on: HCT-116 colon
ACHN renal = tested on: ACHN renal
M14 melanoma = tested on: M14 melanoma
DU-145 prostate = tested on: DU-145 prostate
COLO 205 colon = tested on: COLO 205 colon
HOP-92 NSCLC = tested on: HOP-92 NSCLC
HT29 colon = tested on: HT29 colon
TK-10 renal = tested on: TK-10 renal
UACC-62 melanoma = tested on: UACC-62 melanoma
MDA-MB-231 breast = tested on: MDA-MB-231 breast
U251 CNS = tested on: U251 CNS
HCT-15 colon = tested on: HCT-15 colon
SF-268 CNS = tested on: SF-268 CNS
MCF7 breast = tested on: MCF7 breast
786-0 renal = tested on: 786-0 renal
OVCAR-5 ovarian = tested on: OVCAR-5 ovarian
HOP-62 NSCLC = tested on: HOP-62 NSCLC
HS 578T breast = tested on: HS 578T breast
MALME-3M melanoma = tested on: MALME-3M melanoma
CCRF-CEM leukemia = tested on: CCRF-CEM leukemia
UO-31 renal = tested on: UO-31 renal
SN12C renal = tested on: SN12C renal
A549 NSCLC = tested on: A549 NSCLC
OVCAR-4 ovarian = tested on: OVCAR-4 ovarian
OVCAR-8 ovarian = tested on: OVCAR-8 ovarian
SK-MEL-28 melanoma = tested on: SK-MEL-28 melanoma
CAKI-1 renal = tested on: CAKI-1 renal
SR leukemia = tested on: SR leukemia
KM12 colon = tested on: KM12 colon
SNB-75 CNS = tested on: SNB-75 CNS
NCI-H522 lung = tested on: NCI-H522 lung
UACC-257 melanoma = tested on: UACC-257 melanoma
SK-MEL-5 melanoma = tested on: SK-MEL-5 melanoma
MDA-MB-435 = tested on: MDA-MB-435
SK-OV-3 ovarian = tested on: SK-OV-3 ovarian
RPMI-8226 leukemia = tested on: RPMI-8226 leukemia
BT-549 breast = tested on: BT-549 breast
PC-3 prostate = tested on: PC-3 prostate
RXF 393 renal = tested on: RXF 393 renal
NCI-H460 lung = tested on: NCI-H460 lung
A498 renal = tested on: A498 renal
SW-620 colon = tested on: SW-620 colon
SK-MEL-2 melanoma = tested on: SK-MEL-2 melanoma
HCC-2998 colon = tested on: HCC-2998 colon
OVCAR-3 ovarian = tested on: OVCAR-3 ovarian
MOLT-4 leukemia = tested on: MOLT-4 leukemia
SNB-19 CNS = tested on: SNB-19 CNS
IGROV1 ovarian = tested on: IGROV1 ovarian

O=C1Nc2cc(OC(F)(F)F)ccc2Oc2ccc(-c3ccnc(N4CCNCC4)c3)cc21
GI50 (SF-539 CNS): 1580 nM | TGI (SF-539 CNS): 2980 nM | GI50 (NCI/ADR-RES ovarian): 1610 nM | TGI (NCI/ADR-RES ovarian): 3500 nM | GI50 (HCT-116 colon): 1000 nM | TGI (HCT-116 colon): 2170 nM | GI50 (ACHN renal): 1680 nM | TGI (ACHN renal): 3050 nM | GI50 (M14 melanoma): 1230 nM | TGI (M14 melanoma): 2540 nM | GI50 (DU-145 prostate): 1650 nM | TGI (DU-145 prostate): 3080 nM | GI50 (COLO 205 colon): 1540 nM | TGI (COLO 205 colon): 3080 nM | GI50 (HOP-92 NSCLC): 1170 nM | TGI (HOP-92 NSCLC): 2510 nM | GI50 (HT29 colon): 764 nM | TGI (HT29 colon): 2060 nM | GI50 (TK-10 renal): 1500 nM | TGI (TK-10 renal): 3470 nM | GI50 (UACC-62 melanoma): 1650 nM | TGI (UACC-62 melanoma): 3150 nM | GI50 (MDA-MB-231 breast): 1610 nM | TGI (MDA-MB-231 breast): 3180 nM | GI50 (U251 CNS): 1460 nM | TGI (U251 CNS): 2850 nM | GI50 (HCT-15 colon): 864 nM | TGI (HCT-15 colon): 4560 nM | GI50 (SF-268 CNS): 1700 nM | TGI (SF-268 CNS): 3480 nM | GI50 (MCF7 breast): 840 nM | TGI (MCF7 breast): > 100000 nM | GI50 (786-0 renal): 1530 nM | TGI (786-0 renal): 2890 nM | GI50 (OVCAR-5 ovarian): 1460 nM | TGI (OVCAR-5 ovarian): 3290 nM | GI50 (HOP-62 NSCLC): 1600 nM | TGI (HOP-62 NSCLC): 3260 nM | GI50 (HS 578T breast): 1700 nM | TGI (HS 578T breast): 3980 nM | GI50 (MALME-3M melanoma): 1260 nM | TGI (MALME-3M melanoma): 2740 nM | GI50 (CCRF-CEM leukemia): 1870 nM | TGI (CCRF-CEM leukemia): 6760 nM | GI50 (UO-31 renal): 1340 nM | TGI (UO-31 renal): 2660 nM | GI50 (SN12C renal): 1790 nM | TGI (SN12C renal): 3620 nM | GI50 (A549 NSCLC): 1130 nM | TGI (A549 NSCLC): 2510 nM | GI50 (OVCAR-4 ovarian): 1620 nM | TGI (OVCAR-4 ovarian): 3250 nM | GI50 (OVCAR-8 ovarian): 1580 nM | TGI (OVCAR-8 ovarian): 3000 nM | GI50 (SK-MEL-28 melanoma): 1390 nM | TGI (SK-MEL-28 melanoma): 2730 nM | GI50 (CAKI-1 renal): 1150 nM | TGI (CAKI-1 renal): 2430 nM | GI50 (SR leukemia): 345 nM | TGI (SR leukemia): 1820 nM | GI50 (KM12 colon): 900 nM | TGI (KM12 colon): 2740 nM | GI50 (SNB-75 CNS): 1500 nM | TGI (SNB-75 CNS): 2860 nM | GI50 (NCI-H522 lung): 1590 nM | TGI (NCI-H522 lung): 3160 nM | GI50 (UACC-257 melanoma): 1550 nM | TGI (UACC-257 melanoma): 3050 nM | GI50 (SK-MEL-5 melanoma): 1620 nM | TGI (SK-MEL-5 melanoma): 3010 nM | GI50 (MDA-MB-435): 282 nM | TGI (MDA-MB-435): 1030 nM | GI50 (SK-OV-3 ovarian): 2570 nM | TGI (SK-OV-3 ovarian): 6790 nM | GI50 (RPMI-8226 leukemia): 1840 nM | TGI (RPMI-8226 leukemia): 4780 nM | GI50 (BT-549 breast): 1950 nM | TGI (BT-549 breast): 3740 nM | GI50 (PC-3 prostate): 1290 nM | TGI (PC-3 prostate): 2870 nM | GI50 (RXF 393 renal): 1390 nM | TGI (RXF 393 renal): 2840 nM | GI50 (NCI-H460 lung): 655 nM | TGI (NCI-H460 lung): 1940 nM | GI50 (A498 renal): 1600 nM | TGI (A498 renal): 2950 nM | GI50 (SW-620 colon): 516 nM | TGI (SW-620 colon): 1730 nM | GI50 (SK-MEL-2 melanoma): 1470 nM | TGI (SK-MEL-2 melanoma): 2930 nM | GI50 (HCC-2998 colon): 1330 nM | TGI (HCC-2998 colon): 2690 nM | GI50 (OVCAR-3 ovarian): 1120 nM | TGI (OVCAR-3 ovarian): 2490 nM | GI50 (MOLT-4 leukemia): 1080 nM | TGI (MOLT-4 leukemia): 3290 nM | GI50 (SNB-19 CNS): 1550 nM | TGI (SNB-19 CNS): 3140 nM | GI50 (IGROV1 ovarian): 1200 nM | TGI (IGROV1 ovarian): 2550 nM
